Assay: solubility (saturation concentration) of the salts in water versus temperature, FIG. 2
Type: physicochemical
Details: at 0° C., aqueous, read from FIG. 2

[Cl-].[K+] [KCl]
saturation concentration in water: about 0.41 moles/100 g H2O

Source: US20090155318A1, “PROCESS TO FORM NANO-SIZED MATERIALS, THE COMPOSITIONS AND USES THEREOF” (priority 2006, published 2009)
